The values that follow come from US8076325B2, “1,2,4,5-tetrahydro-3H-benzazepine compounds, a process for their preparation and pharmaceutical compositions containing them” (Les Laboratoires Servier, priority 2007, dated 2011).

Structures can show the parent of a compound that is named as a salt.

One test has as its system spontaneously beating right atrium. Nature of the test: Effect of compounds on the spontaneous beating rate of the right atrium in the rat. Particulars: Rattus norvegicus, 0.25 h.
Procedure: Male WISTAR rats weighing from 325 to 375 g are anaesthetised by ip injection of pentobarbital sodium (30 mg/kg). The heart is rapidly excised and placed in a physiological solution at 4° C. which contains (in mM): NaCl 120.3, KCl 4.8, CaCl2 2.5, KH2PO4 1.0, MgSO4 1.3, NaHCO3 24.2, glucose 11.1, Ca-EDTA 0.016, and which is oxygenated (carbogene 95% O2+5% CO2), pH 7.4. The right atrium (RA), which beats spontaneously, is isolated, placed in a basin, thermostatically controlled at 35° C., containing 20 ml of physiological solution and connected to an isometric tension sensor (model IT-25, EMKA Technologies, Paris, France). The initial tension is set at 0.4 g. The spontaneous beating rate is measured by IOX software (EMKA Technologies, Paris, France). Preparations whose spontaneous beating rate is not between 200 and 300 beats per minute are excluded.
The compounds are dissolved daily at 10^−2M. The following dilutions are stored in ice over the duration of the experiment.
After stabilisation for 30 minutes, the compound under test is added to the medium in cumulative manner every 15 minutes (4 concentrations). The reductions in beating rate are expressed as a percentage relative to the initial rate. The concentration that reduces the initial beating rate by 30% (IC30) is calculated and expressed in terms of molarity (μM).
`CNC(=O)Oc1ccc2c(c1)CC2CN(C)CCC(=O)N1CCc2cc(OC)c(OC)cc2CC1` (stereo not shown) [Example 44, 7-{[[3-(7,8-Dimethoxy-1,2,4,5-tetrahydro-3H-3-benzazepin-3-yl)-3-oxopropyl](methyl)amino]methyl}bicyclo[4.2.0]octa-1,3,5-trien-3-yl methylcarbamate hydrochloride] came in with an IC30 of 800 nM.

`CNC(=O)Oc1ccc2c(c1)C(CN(C)CCC(=O)N1CCc3cc(OC)c(OC)cc3CC1)C2` (stereo not shown) [Example 46, 8-{[[3-(7,8-Dimethoxy-1,2,4,5-tetrahydro-3H-3-benzazepin-3-yl)-3-oxopropyl](methyl)amino]methyl}bicyclo[4.2.0]octa-1,3,5-trien-3-yl methylcarbamate hydrochloride] showed an IC30 of 500 nM. Same read-out and setting: then `COc1cc2c(cc1OC)CCN(C(=O)CCN(C)CC1Cc3cc(OC(=O)N(C)C)ccc31)CC2` (stereo not shown) [Example 47, 7-{[[3-(7,8-Dimethoxy-1,2,4,5-tetrahydro-3H-3-benzazepin-3-yl)-3-oxopropyl](methyl)amino]methyl}bicyclo[4.2.0]octa-1,3,5-trien-3-yl dimethylcarbamate hydrochloride], with 600 nM; and `COc1cc2c(cc1OC)CCN(C(=O)CCN(C)CC1Cc3ccc(OC(=O)N(C)C)cc31)CC2` (stereo not shown) [Example 50, 8-{[[3-(7,8-Dimethoxy-1,2,4,5-tetrahydro-3H-3-benzazepin-3-yl)-3-oxopropyl](methyl)amino]methyl}bicyclo[4.2.0]octa-1,3,5-trien-3-yl dimethylcarbamate hydrochloride], with 500 nM. Same read-out and setting: then `COc1cc2c(cc1OC)CCN(C(=O)CCNCC1Cc3ccc(OC(=O)N(C)C)cc31)CC2` (stereo not shown) [Example 53, 8-{[[3-(7,8-Dimethoxy-1,2,4,5-tetrahydro-3H-3-benzazepin-3-yl)-3-oxopropyl]amino]methyl}bicyclo[4.2.0]octa-1,3,5-trien-3-yl dimethylcarbamate hydrochloride], with 1800 nM; and `COc1cc2c(cc1OC)CCN(C(=O)CCNCC1Cc3cc(OC(=O)N(C)C)ccc31)CC2` (stereo not shown) [Example 54, 7-{[[3-(7,8-Dimethoxy-1,2,4,5-tetrahydro-3H-3-benzazepin-3-yl)-3-oxopropyl]amino]methyl}bicyclo[4.2.0]octa-1,3,5-trien-3-yl dimethylcarbamate hydrochloride], with 800 nM. Regarding `CCN(CC)C(=O)Oc1ccc2c(c1)CC2CN(C)CCC(=O)N1CCc2cc(OC)c(OC)cc2CC1` (stereo not shown) [Example 71, 7-{[[3-(7,8-Dimethoxy-1,2,4,5-tetrahydro-3H-3-benzazepin-3-yl)-3-oxopropyl](methyl)amino]methyl}bicyclo[4.2.0]octa-1,3,5-trien-3-yl diethylcarbamate hydrochloride], the 30% effect level (IC30) was put at 1800 nM. `COc1cc2c(cc1OC)CCN(C(=O)CCN(C)CC1Cc3cc(OC(=O)N4CCCC4)ccc31)CC2` (stereo not shown) [Example 73, 7-{[[3-(7,8-Dimethoxy-1,2,4,5-tetrahydro-3H-3-benzazepin-3-yl)-3-oxopropyl](methyl)amino]methyl}bicyclo[4.2.0]octa-1,3,5-trien-3-yl 1-pyrrolidinecarboxylate hydrochloride] returned an IC30 of 2400 nM.

Still in this test, the particulars now being: Rattus norvegicus, 0.25 h; concentration that reduces the initial spontaneous beating rate by 30%; isolated right atrium of male WISTAR rats, 35° C., compound added cumulatively every 15 minutes (4 concentrations); read-out: IC30.
As for `COc1cc2c(cc1OC)CCN(C(=O)CCN(C)C[C@H]1Cc3cc(OC)c(OC)cc31)CC2` [Example 3a, N-{[(7S)-3,4-Dimethoxybicyclo[4.2.0]octa-1,3,5-trien-7-yl]methyl}-3-(7,8-dimethoxy-1,2,4,5-tetrahydro-3H-3-benzazepin-3-yl)-N-methyl-3-oxopropan-1-amine hydrochloride], the IC30 worked out at 1300 nM.

Regarding `COc1cc2c(cc1OC)CCN(C(=O)CCNC[C@H]1Cc3cc(OC)c(OC)cc31)CC2` [Example 4, N-{[(7S)-3,4-Dimethoxybicyclo[4.2.0]octa-1,3,5-trien-7-yl]methyl}-3-(7,8-dimethoxy-1,2,4,5-tetrahydro-3H-3-benzazepin-3-yl)-3-oxopropan-1-amine hydrochloride], the IC30 came out at 1400 nM.

As for `COc1cc2c(cc1OC)CCN(C(=O)CCN(C)CC1Cc3cc(OC)c(OC)cc3C1)CC2` [Example 7, N-[(5,6-Dimethoxy-2,3-dihydro-1H-inden-2-yl)methyl]-3-(7,8-dimethoxy-1,2,4,5-tetrahydro-3H-3-benzazepin-3-yl)-N-methyl-3-oxopropan-1-amine hydrochloride], the IC30 was 1700 nM. Still for that read-out and setting: then `CCOc1ccc2c(c1)CC2CNCCC(=O)N1CCc2cc(OC)c(OC)cc2CC1` (stereo not shown) [Example 14, 3-(7,8-Dimethoxy-1,2,4,5-tetrahydro-3H-3-benzazepin-3-yl)-N-[(3-ethoxybicyclo[4.2.0]octa-1,3,5-trien-7-yl)methyl]-3-oxopropan-1-amine hydrochloride], with 1000 nM; and `COc1cc2c(cc1OC)CCN(C(=O)CCN(CC1CC1)C[C@H]1Cc3cc(OC)c(OC)cc31)CC2` [Example 22, N-(Cyclopropylmethyl)-N-{[(7S)-3,4-dimethoxybicyclo[4.2.0]octa-1,3,5-trien-7-yl]methyl}-3-(7,8-dimethoxy-1,2,4,5-tetrahydro-3H-3-benzazepin-3-yl)-3-oxopropan-1-amine hydrochloride], with 800 nM.

With `C=CCN(CCC(=O)N1CCc2cc(OC)c(OC)cc2CC1)C[C@H]1Cc2cc(OC)c(OC)cc21` [Example 23, N-Allyl-N-{[(7S)-3,4-dimethoxybicyclo[4.2.0]octa-1,3,5-trien-7-yl]methyl}-3-(7,8-dimethoxy-1,2,4,5-tetrahydro-3H-3-benzazepin-3-yl)-3-oxopropan-1-amine hydrochloride], the IC30 turned out to be 1400 nM. On to `COc1cc2c(cc1OC)CCN(C(=O)CCN(C[C@H]1Cc3cc(OC)c(OC)cc31)C1CCCC1)CC2` [Example 27, N-Cyclopentyl-N-{[(7S)-3,4-dimethoxybicyclo[4.2.0]octa-1,3,5-trien-7-yl]methyl}-3-(7,8-dimethoxy-1,2,4,5-tetrahydro-3H-3-benzazepin-3-yl)-3-oxopropan-1-amine fumarate], for which the IC30 amounted to 1200 nM. Still for that read-out and setting: then `COc1cc2c(cc1OC)CCN(C(=O)CCN(CC1CCCC1)C[C@H]1Cc3cc(OC)c(OC)cc31)CC2` [Example 28, N-(Cyclopentylmethyl)-N-{[(7S)-3,4-dimethoxybicyclo[4.2.0]octa-1,3,5-trien-7-yl]methyl}-3-(7,8-dimethoxy-1,2,4,5-tetrahydro-3H-3-benzazepin-3-yl)-3-oxopropan-1-amine hydrochloride], with 1200 nM; and `COc1cc2c(cc1OC)CCN(C(=O)CCN(CC1CCC1)C[C@H]1Cc3cc(OC)c(OC)cc31)CC2` [Example 29, N-(Cyclobutylmethyl)-N-{[(7S)-3,4-dimethoxybicyclo[4.2.0]octa-1,3,5-trien-7-yl]methyl}-3-(7,8-dimethoxy-1,2,4,5-tetrahydro-3H-3-benzazepin-3-yl)-3-oxopropan-1-amine fumarate], with 400 nM; and `COc1ccc2c(c1)CCN(C(=O)CCN(C)C[C@H]1Cc3cc(OC)c(OC)cc31)CC2` [Example 34, N-{[(7S)-3,4-Dimethoxybicyclo[4.2.0]octa-1,3,5-trien-7-yl]methyl}-3-(7-methoxy-1,2,4,5-tetrahydro-3H-3-benzazepin-3-yl)-N-methyl-3-oxopropan-1-amine hydrochloride], with 1300 nM. On the same count and under the same terms, with `COc1cc2c(cc1C)C(CN(C)CCC(=O)N1CCc3cc(OC)c(OC)cc3CC1)C2` (stereo not shown) [Example 74, 3-(7,8-Dimethoxy-1,2,4,5-tetrahydro-3H-3-benzazepin-3-yl)-N-{[3-methoxy-4-methyl-bicyclo[4.2.0]octa-1,3,5-trien-7-yl]methyl}-N-methyl-3-oxopropan-1-amine hydrochloride] the figure was 1000 nM.

`COc1cc2c(cc1C)CC2CN(C)CCC(=O)N1CCc2cc(OC)c(OC)cc2CC1` (stereo not shown) [Example 76, 3-(7,8-Dimethoxy-1,2,4,5-tetrahydro-3H-3-benzazepin-3-yl)-N-{[4-methoxy-3-methyl-bicyclo[4.2.0]octa-1,3,5-trien-7-yl]methyl}-N-methyl-3-oxopropan-1-amine hydrochloride]: the IC30 is 1600 nM.

Still in this test, the particulars now being: concentration that reduces the initial spontaneous beating rate by 30%; isolated right atrium of male WISTAR rats, 35° C., compound added cumulatively every 15 minutes (4 concentrations); read-out: IC30.
As for “7-({[3-(7,8-Dimethoxy-1,2,4,5-tetrahydro-3H-3-benzazepin-3-yl)-3-oxopropyl](methyl)amino}methyl)bicyclo[4.2.0]octa-1,3,5-trien-3-yl hexahydrocyclopenta[c]pyrrole-2(1H)-carboxylate (cis compound) [Example 78]”, the IC30 was determined as 2000 nM. On the same count and under the same terms, with `COc1cc2c(cc1OC)CCN(C(=O)CCN(C)CC1Cc3cc(OC(=O)N(C)C)ccc31)CC2.Cl` (single isomer, unassigned; (-)) [Example 48, (−) enantiomer of 7-{[[3-(7,8-dimethoxy-1,2,4,5-tetrahydro-3H-3-benzazepin-3-yl)-3-oxopropyl](methyl)amino]methyl}bicyclo[4.2.0]octa-1,3,5-trien-3-yl dimethylcarbamate hydrochloride] the figure was 500 nM.
